# Reference: patent US11920185B2, “Method of inactivating microbes by citraconic anhydride” (Roche Molecular Systems, Inc., priority 2015, dated 2024)
# Where two headings read alike, the source gives them in different places.
# Test system: lambda bacteriophage GT11
# Assay: Titering (plaque assay) of citraconic anhydride-treated lambda bacteriophage on E. coli Y1088
# Assay type: cell-based
# Conditions: for Titer, Tricine, After 1 month / Titer, Tricine, Day 1: stored in 10 mM Tricine pH 8.3; for Titer, Tris, After 1 month / Titer, Tris, Day 1: stored in 10 mM Tris pH8.3; for Titer pfu/ml (at 1 month): stored one month at 4° C.
# Procedure: In order to analyze lambda bacteriophage GT11 inactivation using citraconic anhydride (also referred to as “Cit” or “cit”), a titration was performed.
# 10 μl of working solution of citraconic anhydride in DMF was added to 1 ml lambda bacteriophage in SM buffer, which is 0.1 M NaCl, 10 mM MgSO^4, 50 mM Tris pH 7.5, 0.01% gelatin (Sambrook and Russell, supra, page A2.8) where the phage was provided at 1×10^7 pfu/ml). The reaction was performed at room temperature for 1 hour and then stored at 4° C. for 7 days to one month. The phage solutions were titered to determine the effect of the citraconic anhydride modification on the phage.
# Titering of bacteriophage was performed as follows: The host bacterium, E. coli Y1088, was inoculated into 15 mls luria broth supplemented with 10 mM MgSO4 and 0.2% Maltose (w/v) using a 0.1% inoculum and incubated at 37° C. to an OD<=1. The cells were concentrated by centrifugation (10 minutes at 500×g) and the cell pellet resuspended in ½ volume of sterile 10 mM MgSO4. The E. coli cells were diluted to 0.5 OD600 with 10 mM MgSO4. The bacteriophage was serially diluted in SM Buffer as follows. Pipet 10 μL phage into the tube labeled 10^−2. Resuspend by vortexing. Using a new tip, pipet 10 μL of the 10^−2 dilution into the tube labeled 10^−4. Resuspend by vortexing. Repeat the 100-fold serial dilutions to the 10^−8 tube. From the 10^−8 tube, perform 10-fold dilutions to the 10^−9 and 10^−10 tubes. Add 100 μL of phage from the 10^−8 s to the 10^−9 tube, vortex, and add 100 μL from the 10^−9 tube to the 10^−10 tube. Vortex the 10^−10 tube. Add 300 μL E. coli to each of 5 sterile 17×100 mm Falcon polypropylene round bottom tubes (#352057) for each sample being titered. Add 100 μL of the diluted […] to the tube (dilutions 10^−4, 10^−6, 10^−8, 10^−9 and 10^−10). Let sit 10 minutes at room temperature. Incubate 10 minutes at 37° C. Meanwhile, label the NZCYM plates with the phage sample and the dilution. To the first tube still in the 37° C. heat block, add 3 mL top agar (from the bottle of top agar in the 50° C. bath), vortex the tube, and quickly pour onto the NZCYM plate. Swirl the plate quickly so the top agar covers the entire plate. Allow the top agar to solidify on the bench. Repeat with each tube. Incubate the plates at 37° C. overnight in an inverted position. The next day, count the plaques and calculate the titer by using the dilution which provides the most countable number of plaques.
# This experiment tested the stability of citraconic anhydride (Cit)-treated lambda bacteriophage. Phage was inactivated using different Cit concentrations and stored for one month at 4° C.
# Bacteriophage targets treated with different concentrations of Cit were stored in different buffers and then evaluated for their inactivation status. Targets were stored in either 10 mM Tris pH8.3 or 10 mM Tricine pH 8.3.
smiles,measurement,setting,value
CC1=CC(=O)OC1=O [citraconic anhydride],Day 1 - Titer,,6.7 × 10^6 pfu/ml
same,Day 8 - Titer,"1.1 μM final concentration, stored at 4° C.",3.9 × 10^7 pfu/ml
same,Day 1 - Titer,11 μM final concentration,9.0 × 10^6 pfu/ml
same,Day 8 - Titer,"11 μM final concentration, stored at 4° C.",2.9 × 10^7 pfu/ml
same,Day 1 - Titer,0.11 mM final concentration,5.5 × 10^6 pfu/ml
same,Day 8 - Titer,"0.11 mM final concentration, stored at 4° C.",3.6 × 10^7 pfu/ml
same,Day 1 - Titer,1.1 mM final concentration,1.8 × 10^6 pfu/ml
same,Day 8 - Titer,"1.1 mM final concentration, stored at 4° C.",2.0 × 10^7 pfu/ml
same,"Titer, Tricine, After 1 month",5.5 mM Cit,3 × 10^3 pfu/ml
same,"Titer, Tricine, Day 1",5.5 mM Cit,1 × 10^3 pfu/ml
same,"Titer, Tris, After 1 month",5.5 mM Cit,0 pfu/ml
same,"Titer, Tris, Day 1",5.5 mM Cit,1.5 × 10^3 pfu/ml
same,Titer pfu/ml (Day 1),5.5 mM final Cit concentration,1.5 × 10^6 pfu/ml
same,Titer pfu/ml (at 1 month),5.5 mM final Cit concentration,1.5 × 10^6 pfu/ml
same,"Titer, Tricine, After 1 month",11 mM Cit,0 pfu/ml
same,"Titer, Tricine, Day 1",11 mM Cit,0 pfu/ml
same,"Titer, Tris, After 1 month",11 mM Cit,0 pfu/ml
same,"Titer, Tris, Day 1",11 mM Cit,0 pfu/ml
same,Titer pfu/ml (Day 1),11 mM final Cit concentration,0 pfu/ml
same,Titer pfu/ml (at 1 month),11 mM final Cit concentration,0 pfu/ml
same,Day 1 - Titer,"11 mM final concentration in reaction with phage, 1 h room temperature, phage 1×10^7 pfu/ml in SM buffer",0 pfu/ml
same,Day 8 - Titer,"11 mM final concentration, stored at 4° C.",0 pfu/ml
same,Phage inactivation,"11 mM, persisted after 7 days",complete inactivation
same,"Titer, Tricine, After 1 month",22 mM Cit,0 pfu/ml
same,"Titer, Tricine, Day 1",22 mM Cit,0 pfu/ml
same,"Titer, Tris, After 1 month",22 mM Cit,0 pfu/ml
same,"Titer, Tris, Day 1",22 mM Cit,0 pfu/ml
same,Titer pfu/ml (Day 1),22 mM final Cit concentration,0 pfu/ml
same,Titer pfu/ml (at 1 month),22 mM final Cit concentration,0 pfu/ml
same,Persistence of phage inactivation after storage,"Cit-treatment at >=11 mM, storage in 10 mM Tris pH8.3 or 10 mM Tricine pH 8.3",provides inactivation for 1 month
same,Persistence of phage inactivation,"greater than or equal to 11 mM, stored at 4° C.",remain inactivated for 1 month
